The source of these data is the METLIN SMRT retention time set (Domingo-Almenara et al. 2019).

The series in a line: gradient 5% acetonitrile 3 min, to 50% in 2 min, to 85% in 15 min, held 3 min, 100 µL/min. Particulars: column: Zorbax Extend-C18 2.1 x 50 mm; eluents: water / acetonitrile, 0.1% formic acid. In outline:
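Over 3 months, pure standards in mixtures of ~100 molecules were run by HPLC coupled to a quadrupole time-of-flight mass spectrometer in positive and negative ionization mode. The column was a Zorbax Extend-C18 (2.1 × 50 mm, 1.8 μm) at 100 μL/min, eluted with water and acetonitrile each holding 0.1% formic acid, with 40 μL dead and 900 μL dwell volumes. Retention time was determined from adduct peaks chosen by software and checked manually.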
The compound `O=S(=O)(Nc1ccc(Nc2ccc(-n3cccn3)nn2)cc1)c1ccc(F)cc1F` had an RP-LC retention time of 788 s.
In the case of `CC(C)CN1C(=O)CCc2cc(NS(=O)(=O)c3cccc(F)c3)ccc21` it was 898 s; in that of `CCn1cnc2ccc(-c3noc(-c4ccc(Cl)cc4)n3)cc21`, 863 s; in that of `Cc1oc2ccn(Cc3ccc(F)cc3)c(=O)c2c1C(=O)N1CCCCC1`, 834 s.
For `CC(C)n1nnc2cc(S(=O)(=O)N3CCCC3C(=O)N3CCN(c4ccccn4)CC3)ccc21` (centres undefined), the RP-LC retention time turned out to be 609 s.
In the case of `O=C(c1ccc(F)c(F)c1)N1CCN(C(=O)c2nnn3c2COC(c2ccccc2)C3)CC1` (centres undefined) it was 876 s; in that of `Cc1nc(CCNC(=O)C2CCC2)no1`, 608 s.
Turning to `COc1cccc(CCNC(=O)C2CCCN(c3ncnc4c3nc3n4CCCCC3)C2)c1OC` (centres undefined), the RP-LC retention time came to 758 s.
In the case of `Cc1noc(-c2cc(=O)n(CC(=O)Nc3ccc4c(c3)OCCO4)c3ccccc23)n1` it was 803 s.
As for `CCc1cccc(C)c1Nc1c(-c2ccc(F)cc2)nc2ncccn12`, the figure is 886 s; as for `O=C(NCc1ccc(F)cc1)C1CCN(c2cc(N3CCOCC3)ncn2)CC1`, 607 s; as for `Cn1nc(N2CCC(NC(=O)c3ccc[nH]c3=O)C2)ccc1=O` (centres undefined), 575 s.
As for `COC(=O)c1ccc(CNC2CCN(c3ccc(C(=O)NC4CC4)cn3)C2)cc1` (centres undefined), the figure is 552 s; as for `CCOCCCNS(=O)(=O)c1cc(-c2cc(C)[nH]n2)sc1C`, 720 s.
`CSc1ncccc1C(=O)NCc1ccc2c(c1)ncn2C(C)C` came in with an RP-LC retention time of 585 s.
In the case of `CCn1c(=O)c2ccccc2n(Cc2nc(-c3cccc(OC)c3)no2)c1=O` it was 992 s; in that of `CCn1c(=O)sc2cc(S(=O)(=O)N3CCC(C(=O)Nc4cccc5c4CCCC5)CC3)ccc21`, 1010 s.
As for `CN1CCC(OC2CCN(C(=O)CC3CCCC3)CC2)CC1`, the figure is 596 s; as for `COc1cccc(CNC(=O)C(=O)NCC2CCN(C(=O)NC(C)(C)C)CC2)c1`, 719 s; as for `O=S(=O)(Cc1ccccc1)N1CCCC(Cc2nncn2CC2CC2)C1` (centres undefined), 631 s.
On to `CCc1nc(OCC(=O)N(C)c2ccccc2)c2ccccc2n1`, for which the RP-LC retention time is 756 s.
Consider `CCOc1ccc(C(C)NC(=O)c2nnc(-c3ccc(S(=O)(=O)N(C)C)cc3)o2)cc1` (centres undefined), for which the RP-LC retention time was 923 s.
As for `O=C(CN1C(=O)CCCc2cc(S(=O)(=O)N3CCCC3)ccc21)NC1CCCCCCC1`, the figure is 915 s; as for `COc1ccc(CCNC(=O)CCc2nnc3c4cc(-c5ccc(C)c(C)c5)nn4ccn23)cc1OC`, 802 s.
In the case of `Cc1ccc(Cn2cc(-c3ccncc3)cc2C(=O)NCC2CC2)cc1` it was 705 s.
In the case of `NS(=O)(=O)c1ccc(CCNCc2ccc(-c3ccc(F)cc3)o2)cc1` it was 643 s; in that of `Cc1ccn(C(=O)c2ccc(NC(=O)CC(C)C)cc2)n1`, 804 s.
On to `Cc1cc2c(=O)n(CC(=O)Nc3ccc(F)cc3Cl)ccc2s1`, for which the RP-LC retention time was determined as 812 s.
Consider `O=S(=O)(c1cccs1)N1CCN(c2cnn3c(C4CC4)nnc3c2)CC1`, for which the RP-LC retention time turned out to be 683 s.
In the case of `CNC(=O)CN1c2ccccc2NC2=C(C(=O)CC(C)(C)C2)C1c1ccc(OC)cc1` (centres undefined) it was 729 s; in that of `CCc1ccccc1N1C=C(C(=O)OC)S(=O)(=O)c2ccccc21`, 918 s; in that of `CC(NC(=O)CC1CCN(S(=O)(=O)c2ccccc2)CC1)c1ccc2c(c1)OCCO2` (centres undefined), 846 s.
In the case of `COCCOc1cc(=O)n2c(c1C(=O)NC1CCC1)CCOCC2` it was 575 s; in that of `Cc1nc(-c2csc(S(=O)(=O)N3CCN(c4cccc(Cl)c4)CC3)c2)sc1C`, 1270 s.
As for `O=C([C@@H]1C[C@H](F)CN1C(=O)Nc1cccc(C(F)(F)F)c1)N1CCOCC1`, the figure is 698 s.
The compound `O=C(Nc1nc(-c2ccccc2)cs1)c1c(-c2ccc(Cl)cc2)nc2n1CCS2(=O)=O` registered an RP-LC retention time of 1080 s.
Consider `COC(=O)C1=CN(c2ccc(C)cc2C)c2ccccc2S1(=O)=O`, for which the RP-LC retention time came out at 869 s.
In the case of `Cc1cccc(NS(=O)(=O)c2ccc3c(c2)CCCC(=O)N3)c1C` it was 813 s; in that of `Cc1cc(C)cc(NC(=O)C2CCN(S(C)(=O)=O)c3cc(C)ccc3O2)c1` (centres undefined), 900 s.
`CCOc1ccc(-c2nnc(SCC(=O)N3CCCC3)o2)cc1` returned an RP-LC retention time of 757 s.
`O=C(NC1CCN(c2ccc(F)cc2)C1=O)c1ccccc1C(F)(F)F` (centres undefined) came in with an RP-LC retention time of 823 s.
As for `CCOc1ccccc1C1NC(=O)N(CC(=O)NC2CCCCC2)C2=C1C(=O)OC2` (centres undefined), the figure is 722 s; as for `CCOc1ccc(NS(=O)(=O)c2cc(-c3[nH]ncc3C(=O)N3CCCC3)oc2C)cc1`, 717 s; as for `O=C(Cn1ccnc1-c1ccnc(N2CCSCC2)c1)NCc1ccc(F)cc1`, 653 s.
As for `CC(C)CC(=O)N1CCc2c(c(-c3nnc(-c4ccccc4Cl)o3)nn2C)C1`, the figure is 852 s.
In the case of `Cc1nn(C(C)C(=O)NCCCN2CCOCC2)c(=O)c2c(C)n(-c3ccccc3)nc12` (centres undefined) it was 615 s.
On to `N#Cc1cccc(S(=O)(=O)N2CCC(c3cc(N)on3)CC2)c1`, for which the RP-LC retention time came to 743 s.
In the case of `Cc1nc(OCC(=O)NC2CCCCC2)c2c(-c3ccccc3)noc2n1` it was 1010 s; in that of `CC(=O)Nc1cc(NC(C)=O)ncn1`, 644 s.
In the case of `Cc1cccc(Cn2c(=O)n(CCNC(=O)C3CCC3)c3ncccc32)c1` it was 784 s.
As for `Cc1cc(Cl)ccc1NC(=O)N1C[C@@H]2C[C@H](NC(=O)c3ccccc3)[C@H]1C2`, the figure is 907 s; as for `O=c1c2cnn(-c3ccc(Br)cc3)c2ncn1Cc1nc(-c2ccc(F)cc2)no1`, 1150 s; as for `Cc1cc(N2CCCC2)nc(N2CCN(S(=O)(=O)c3ccc(-c4ccccc4)cc3)CC2)n1`, 911 s.
`CCn1c(N2CCN(C(=O)Nc3cc(OC)cc(OC)c3)CC2)nc2ccccc21`: the RP-LC retention time stood at 660 s.
In the case of `Cc1cc(NC(=O)CSc2nc(-c3cccs3)nc3c2c(=O)n(C)c(=O)n3C)no1` it was 780 s; in that of `CCc1nc(-c2cc(S(=O)(=O)NCC(=O)N3CCN(c4ccc(F)cc4)CC3)c(C)s2)no1`, 959 s.
As for `O=C(c1cc(F)cc(F)c1)N1CCCC(c2ccnc(-c3cccc(F)c3)n2)C1` (centres undefined), the figure is 1120 s.
In the case of `CC(NC(=O)C1CCCN(c2nc3ccsc3c(=O)n2Cc2ccccc2)C1)c1ccc(F)cc1` (centres undefined) it was 951 s; in that of `CCN1CCN(C2CCN(C(=O)c3cc(F)ccc3Cl)CC2)C1=O`, 705 s; in that of `CC(C)n1cnc2cc(CNC(=O)Cc3cccc(F)c3)ccc21`, 607 s.
For `Cc1ccc(NS(=O)(=O)c2cc3c(s2)CCN(C(=O)C2CCC2)C3)cc1Cl`, the RP-LC retention time was 1010 s.
Compound `CCOCc1nc(C2CCCN(C(=O)NC(C)C)C2)no1` (centres undefined) displayed an RP-LC retention time of 704 s.
`CCn1cc(C)c(C(=O)O)c1CC(=O)Nc1ccc(Cl)cn1` had an RP-LC retention time of 835 s.
As for `CCn1cc(-c2ccc(C)cc2)cc1C(=O)N1CCC2(CC1)OCCO2`, the figure is 1000 s; as for `Cn1c(Nc2ccc(C(F)(F)F)cc2)nc2cc(Oc3ccnc(-c4ncc(C(F)(F)F)[nH]4)c3)ccc21`, 994 s; as for `CCc1nc(-c2c(C)cc(C)nc2NC(=O)c2ccccc2Br)no1`, 828 s.
As for `CCn1cc(C2=CCN(S(=O)(=O)c3ccc(OC)cc3)CC2)c2cccnc21`, the figure is 986 s.
In the case of `O=C1CCCc2cc(S(=O)(=O)NCc3cccc(Br)c3)ccc2N1` it was 764 s.
Take `CCOC(=O)c1c(C)n(-c2ccc(OC)cc2)c2ccc(OCC(N)=O)cc12`: the RP-LC retention time came to 909 s.
In the case of `Cc1c(Cl)cccc1NC(=O)N1CCC(c2cc(N)on2)CC1` it was 736 s.
As for `CNC(=O)N1CCc2nc(-c3ccccc3)ncc2C1`, the figure is 678 s; as for `Cc1cc(C)n(-c2ccnc(N3CCC(C(N)=O)CC3)n2)n1`, 586 s; as for `Cc1ccccc1-n1ncc2c(NCc3ccco3)ncnc21`, 708 s.
In the case of `O=C(c1ccnnc1)N1C[C@@H](COCC2CC2)[C@H](c2ccncc2)C1` it was 570 s; in that of `COc1cc(OC)c(NC(=O)c2[nH]c(C)c(S(=O)(=O)N3CCCC3)c2C)cc1Cl`, 982 s; in that of `CSc1ccccc1NC(=O)c1coc(NC(=O)c2ccco2)n1`, 699 s.
As to `COc1ccc(CN2C[C@@H]3C(=O)N(Cc4ccc5c(c4)OCO5)C(=O)[C@@H]3C2)cc1OC`, the RP-LC retention time stood at 659 s.
For `O=C(CC1CCN(S(=O)(=O)c2ccc(Cl)s2)CC1)N1CCN(c2ccccn2)CC1`, the RP-LC retention time is 672 s.
In the case of `CCNc1nc(C)cc(N2CCN(S(=O)(=O)c3ccccc3C(F)(F)F)CC2)n1` it was 732 s.
